Marks after values point to notes of the source that are not given here.
Legend:
rats = assay: Toxicity of spermine derivatives in rats (deaths); format: in vivo, rat; conditions: 50 mg/kg twice/24 h
Source text: It is likely to be the case with the methylated analogues as well.

[1] = test system: syngenic and transgenic rats; assay: Hepatic SSAT activity and polyamine pools after partial hepatectomy; format: in vivo, rat; conditions: transgenic rats; 24 h regenerating liver; 25 mg/kg 20 and 4 h before operation
Source text: FIGS. 4a–4d. Hepatic polyamine pools in syngenic and transgenic rats after partial hepatectomy and methylspermidine. […] Three to five animals in each group. Me-spd, methylspermidine.
(§1) The production of transgenic Wistar rats (UKUR30) and mice (UKU181) harboring metallothionein-SSAT fusion gene (Suppola, S., Pietilä, M., Parkkinen, J. J., Korhonen, V. P., Alhonen, L., Halmekytö, M., Porter, C. W., and Jänne, J. (1999) Biochem. J. 338, 311–316) has been described earlier (Alhonen, L., Parkkinen, J. J., Keinänen, T., Sinervirta, R., Herzig, K. H., and Jänne, J. (2000) Proc. Natl. Acad. Sci. U.S.A. 97, 8290–8295; Lukkarinen, J., Gröhn, O., Sinervirta, R., Järvinen, A., Kauppinen, R. A., Jänne, J., and Alhonen, L. (1997) Stroke 28, 639–645). Partial hepatectomy was carried out according to the original method of Higgins and Anderson (Higgins, G. H., and Anderson, R. M. (1931) Arch. Pathol. 12, 186–202). Treatments before partial hepatectomy and the determination of DNA synthesis were carried out as in (Räsänen, T. L., Alhonen, L., Sinervirta, R., Keinänen, T., Herzig, K. H., Suppola, S., Khomutov, A. R., Vepsäläinen, J., and Jänne, J. (2002) J. Biol. Chem. 277, 39867–39872). […] The animals were sacrificed 24 h after the second MDL72527 injection and liver pieces were frozen in liquid nitrogen, homogenized in buffer (25 mM Tris-HCl pH 7.4, 0.1 mM EDTA, 1 mM DTT). An aliquot of the homogenates was used for the polyamine assays. The homogenates were centrifuged (at 13 000×g, for 30 min, at 4° C.) and the supernatants were used for the enzyme activity assays. The Institutional Animal Care and Use Committee of the University of Kuopio and by the Provincial Government approved animal experiments.
FIG. 4 depicts polyamine concentrations in syngenic and transgenic rats at 24 h after partial hepatectomy. […] This in all likelihood reflected the enhanced SSAT activity. […] In transgenic animals, the low spermidine pool was further decreased in response to the operation (FIG. 4c).
Liver regeneration could be restored by a prior administration of α-methylspermidine (Räsänen, T. L., Alhonen, L., Sinervirta, R., Keinänen, T., Herzig, K. H., Suppola, S., Khomutov, A. R., Vepsäläinen, J., and Jänne, J. (2002) J. Biol. Chem. 277, 39867–39872). FIG. 10. depicts thymidine incorporation in livers of transgenic rats before and 24 h after partial hepatectomy. […] Table 3 lists the liver pools of polyamines and their analogues before and after partial hepatectomy. […] The analogues were readily accumulated in the livers.

[2] = test system: syngenic and UKU181 transgenic mice; assay: Plasma α-amylase and ALAT in syngenic and transgenic mice after analogue injection; format: in vivo, mouse; conditions: 24 h before sacrifice
Experimental: α-methylspermidine, Bis-α-methylspermine and α-methylspermine were administered in saline. […] The data are expressed as means ±S.D. For statistical analysis, the two-tailed Student's t test was used.

[3] = test system: syngenic and transgenic rats; assay: Liver regeneration after partial hepatectomy (liver weight, PCNA labeling index, thymidine incorporation); format: in vivo, rat; conditions: SSAT transgenic rats; 24 h after partial hepatectomy; 25 mg/kg 20 h and 4 h before
Experimental: FIGS. 5a–5b. Liver weight (FIG. 5a) and PCNA labeling index (FIG. 5b) in syngenic and transgenic rats after partial hepatectomy and methylspermidine. Three to five animals in each group. *p<0.05, ***p<0.001 as compared with preoperative values. Md-spd, methylspermidine.
FIG. 10. Effect of polyamine analogues on thymidine incorporation in 24-h regenerating livers of SSAT transgenic rats. […] Ten μCi of tritiated thymidine was given 30 min before sacrifice. Three to four animals in each group.
as §1
PCNA was detected from formalin-fixed paraffin-embedded tissue section as described in detail earlier (Alhonen, L., Räsänen, T. L., Sinervirta, R., Parkkinen, J. J., Korhonen, V. P., Pietilä, M., and Jänne, J. (2002) Biochem. J. 362, 149–15).
PCNA was used as an indicator of proliferative activity during liver regeneration. Immunohistochemical detection of PCNA is a convenient and commonly used method to grade proliferative activity in various tissues. PCNA expression is closely correlated with the S-phase of the cell cycle (17). FIG. 5b depicts PCNA labeling index before partial hepatectomy and at 24 h postoperatively in syngenic and transgenic rats without or with methylspermidine treatment. In resting liver, only about 1% of the hepatocytes were PCNA-positive. In syngenic animals, the number of PCNA-positive cells increased sharply to over 30% at 24 h after the operation whereas in transgenic animals the number of positive cells remained at the low preoperative level at this time point (FIG. 5b). […] The experiment was repeated with other groups of syngenic and transgenic rats. In this experiment, PCNA-positive hepatocytes accounted for 0.5±0.1% in resting syngenic liver. The number of positive cells rose to 10.7±3.5% at 24 h postoperatively without the analogue (p<0.001) and to 9.8±1.5% with the analogue (p<0.001). The corresponding figures for the transgenic animals were 0.20±0.0 before the operation, 0.42±0.24% at 24 h postoperatively without methylspermidine and 25.9±4.9% with methylspermidine (p<0.001). It thus appears that the analogue completely reversed the proliferative block in transgenic livers.
Liver regeneration could be restored by a prior administration of α-methylspermidine (Räsänen, T. L., Alhonen, L., Sinervirta, R., Keinänen, T., Herzig, K. H., Suppola, S., Khomutov, A. R., Vepsäläinen, J., and Jänne, J. (2002) J. Biol. Chem. 277, 39867–39872). […]

[4] = Tg (transgenic) mice, 12.5 mg/kg
[5] = Tg (transgenic) mice, 37.5 mg/kg

CC(N)CCNCCCCNCCC(C)N (stereo not drawn) [bis-α-methylspermine, 1,12-dimethylspermine]
deaths (rats): a number of rats died | Me2-Spm (liver) [1]: 381 ± 124 pmoles/mg tissue wet weight | Me-Spd (liver) [1]: 154 ± 6 pmoles/mg tissue wet weight | Put (liver) [1]: 4400 ± 275^a pmoles/mg tissue wet weight | Spd (liver) [1]: 266 ± 55^a pmoles/mg tissue wet weight | Spm (liver) [1]: 6 ± 8^a pmoles/mg tissue wet weight | Plasma ALAT ([2]; Sg (syngenic) mice, 12.5 mg/kg): 49.33 U/dm^3 | Plasma α-amylase ([2]; Sg (syngenic) mice, 12.5 mg/kg): 3167.33 U/dm^3 | Plasma ALAT ([2]; Sg (syngenic) mice, 25 mg/kg): 57.67 U/dm^3 | Plasma α-amylase ([2]; Sg (syngenic) mice, 25 mg/kg): 2931.00 U/dm^3 | Plasma ALAT ([2]; Sg (syngenic) mice, 37.5 mg/kg): 35.67 U/dm^3 | Plasma α-amylase ([2]; Sg (syngenic) mice, 37.5 mg/kg): 2827.00 U/dm^3 | Plasma ALAT ([2]; Sg (syngenic) mice, 50 mg/kg): 62.00 U/dm^3 | Plasma α-amylase ([2]; Sg (syngenic) mice, 50 mg/kg): 2715.33 U/dm^3 | Plasma ALAT [2, 4]: 50.67 U/dm^3 | Plasma α-amylase [2, 4]: 2822.67 U/dm^3 | Plasma ALAT ([2]; Tg (transgenic) mice, 25 mg/kg): 45.33 U/dm^3 | Plasma α-amylase ([2]; Tg (transgenic) mice, 25 mg/kg): 3242.33 U/dm^3 | Plasma ALAT [2, 5]: 31.00 U/dm^3 | Plasma α-amylase [2, 5]: 2540.00 U/dm^3 | Plasma ALAT ([2]; Tg (transgenic) mice, 50 mg/kg): 60.00 U/dm^3 | Plasma α-amylase ([2]; Tg (transgenic) mice, 50 mg/kg): 2886.00 U/dm^3 | stimulation of DNA synthesis (thymidine incorporation) [3]: about 10 fold
